According to patent publication US6914045B2, “Glycopeptide antibiotics” (Wyeth Holdings Corporation, priority 2001, dated 2005):
≈ marks a conversion by molar mass, not a printed value.

Tests used:
[1] = tested on: Staphylococcus aureus-SMITH (GC 4543); experiment: acute lethal infection in mice; format: in vivo; conditions: acute lethal infection, female CD-1 mice, intraperitoneal challenge, intravenous 30 min. after infection, 7 day survival
Method in brief: (§1)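 Intraperitoneal challenge of female CD-1 mice with a bacterial dose lethal to untreated animals within 24-48 hr; single iv treatment 30 min later, 5 mice per dose level. Survival is scored at day 7 and pooled from three experiments to give the median effective dose.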

[2] = tested on: Enterococcus faecalis (GC 6189); experiment: acute lethal infection in mice; format: in vivo; conditions: female CD-1 mice, intraperitoneal challenge, intravenous 30 min. after infection, 7 day survival
Method in brief: as §1

Streptococcus sp. = experiment: in vitro antibacterial evaluation, MIC by broth dilution; format: cell-based; conditions: broth dilution, 18 hours at 35° C.
Method in brief: (§2)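 Step 1: dilute antibiotic across 64-0.06 μg/mL in Muller-Hinton II […]. Step 2: inoculate at 5×10^5 CFU/mL.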

Escherichia coli = experiment: as above; format: cell-based; conditions: 18 hours at 35° C.
Method in brief: as §2

Staphylococcus sp. = experiment: as above; format: cell-based; conditions: broth dilution, 18 hours at 35° C.
Method in brief: as §2

Enterococcus sp. = experiment: as above; format: cell-based; conditions: broth dilution, 18 hours at 35° C.
Method in brief: as §2

Cc1ccc(CC2OCC3OC(OC4C(CO)OC(Oc5ccc(CC6NC(=O)C(C(C)c7ccccc7)NC(=O)CNC(=O)C(CO)NC(=O)C(C(O)C7CNC(=N)N7C7OC(CO)C(O)C(O)C7O)NC(=O)C(C(O)C7CNC(=N)N7)NC6=O)cc5)C(O)C4O)C(O)C(O)C3O2)cc1 (stereo not drawn) [Example 119, Cyclo[glycyl-β-methylphenylalanyl-O-[4-O-[4,6-O-(4-methylphenethylidene)hexopyranosyl]-hexopyranosyl]tyrosyl-3-(2-iminoimidazolidin-4-yl)seryl-3-(3-hexopyranosyl-2-iminoimidazolidin-4-yl)serylseryl]]
median effective dose (ED50), Staphylococcus aureus-SMITH (GC 4543) [1]: 0.19 mg/kg | median effective dose (ED50), Enterococcus faecalis (GC 6189) [2]: 0.41 mg/kg | MIC Streptococcus agalactiae (GC 4564) (Streptococcus sp.; Streptococcus agalactiae (GC 4564)): <0.5 µg/mL | MIC Streptococcus pneumoniae (ATCC 6301) (Streptococcus sp.; Streptococcus pneumoniae (ATCC 6301)): <0.5 µg/mL | MIC Streptococcus pneumoniae (GC 1894) (Streptococcus sp.; Streptococcus pneumoniae (GC 1894)): <0.5 µg/mL | MIC Streptococcus pneumoniae (GC 4565) (Streptococcus sp.; Streptococcus pneumoniae (GC 4565)): 1 µg/mL (≈ 0.708 µM) | MIC Streptococcus pyogenes (GC 4563) (Streptococcus sp.; Streptococcus pyogenes (GC 4563)): <0.5 µg/mL | MIC Streptococcus pneumoniae (ATCC 6301) (Streptococcus sp.; strain ATCC 6301): <0.5 µg/mL | MIC Streptococcus pneumoniae (GC 1894) (Streptococcus sp.; strain GC 1894): <0.5 µg/mL | MIC Streptococcus pyogenes (GC 4563) (Streptococcus sp.; strain GC 4563): <0.5 µg/mL | MIC Streptococcus agalactiae (GC 4564) (Streptococcus sp.; strain GC 4564): <0.5 µg/mL | MIC Streptococcus pneumoniae (GC 4565) (Streptococcus sp.; strain GC 4565): 1 µg/mL (≈ 0.708 µM) | MIC Escherichia coli (ATCC 25922) (Escherichia coli; strain ATCC 25922): 32 µg/mL (≈ 22.7 µM) | MIC Escherichia coli (GC 4559) (Escherichia coli; strain GC 4559): 32 µg/mL (≈ 22.7 µM) | MIC Escherichia coli (GC 4560) (Escherichia coli; strain GC 4560): 1 µg/mL (≈ 0.708 µM) | MIC Coagulase Negative Staphylococcus (GC 4547) (Staphylococcus sp.): 1 µg/mL (≈ 0.708 µM) | MIC Coagulase Negative Staphylococcus (GC 4548) (Staphylococcus sp.): 1 µg/mL (≈ 0.708 µM) | MIC Coagulase Negative Staphylococcus (GC 4549) (Staphylococcus sp.): 1 µg/mL (≈ 0.708 µM) | MIC Coagulase Negative Staphylococcus (GC 4551) (Staphylococcus sp.): 1 µg/mL (≈ 0.708 µM) | MIC Coagulase Negative Staphylococcus (GC 6257) (Staphylococcus sp.): <0.5 µg/mL | MIC Staphylococcus aureus (ATCC 29213) (Staphylococcus sp.): 1 µg/mL (≈ 0.708 µM) | MIC Staphylococcus aureus (GC 1131) (Staphylococcus sp.): 1 µg/mL (≈ 0.708 µM) | MIC Staphylococcus aureus (GC 3051) (Staphylococcus sp.): 1 µg/mL (≈ 0.708 µM) | MIC Staphylococcus aureus (GC 3053) (Staphylococcus sp.): 2 µg/mL (≈ 1.42 µM) | MIC Staphylococcus aureus (GC 4541) (Staphylococcus sp.): 1 µg/mL (≈ 0.708 µM) | MIC Staphylococcus aureus (GC 4542) (Staphylococcus sp.): 1 µg/mL (≈ 0.708 µM) | MIC Staphylococcus aureus (GC 4544) (Staphylococcus sp.): 1 µg/mL (≈ 0.708 µM) | MIC Staphylococcus aureus (GC 4545) (Staphylococcus sp.): 1 µg/mL (≈ 0.708 µM) | MIC Staphylococcus aureus-SMITH (GC 4543) (Staphylococcus sp.): 1 µg/mL (≈ 0.708 µM) | MIC Staphylococcus haemolyticus (GC 4546) (Staphylococcus sp.): 1 µg/mL (≈ 0.708 µM) | MIC Staphylococcus aureus (GC 1131) (Staphylococcus sp.; inoculum 5×10^5 CFU/mL, strain GC 1131): 1 µg/mL (≈ 0.708 µM) | MIC Staphylococcus aureus (ATCC 29213) (Staphylococcus sp.; strain ATCC 29213): 1 µg/mL (≈ 0.708 µM) | MIC Staphylococcus aureus (GC 3051) (Staphylococcus sp.; strain GC 3051): 1 µg/mL (≈ 0.708 µM) | MIC Staphylococcus aureus (GC 3053) (Staphylococcus sp.; strain GC 3053): 2 µg/mL (≈ 1.42 µM) | MIC Staphylococcus aureus (GC 4541) (Staphylococcus sp.; strain GC 4541): 1 µg/mL (≈ 0.708 µM) | MIC Staphylococcus aureus (GC 4542) (Staphylococcus sp.; strain GC 4542): 1 µg/mL (≈ 0.708 µM) | MIC Staphylococcus aureus (GC 4544) (Staphylococcus sp.; strain GC 4544): 1 µg/mL (≈ 0.708 µM) | MIC Staphylococcus aureus (GC 4545) (Staphylococcus sp.; strain GC 4545): 1 µg/mL (≈ 0.708 µM) | MIC Staphylococcus haemolyticus (GC 4546) (Staphylococcus sp.; strain GC 4546): 1 µg/mL (≈ 0.708 µM) | MIC Coagulase Negative Staphylococcus (GC 4547) (Staphylococcus sp.; strain GC 4547): 1 µg/mL (≈ 0.708 µM) | MIC Coagulase Negative Staphylococcus (GC 4548) (Staphylococcus sp.; strain GC 4548): 1 µg/mL (≈ 0.708 µM) | MIC Coagulase Negative Staphylococcus (GC 4549) (Staphylococcus sp.; strain GC 4549): 1 µg/mL (≈ 0.708 µM) | MIC Coagulase Negative Staphylococcus (GC 4551) (Staphylococcus sp.; strain GC 4551): 1 µg/mL (≈ 0.708 µM) | MIC Coagulase Negative Staphylococcus (GC 6257) (Staphylococcus sp.; strain GC 6257): <0.5 µg/mL | MIC Staphylococcus aureus-SMITH (GC 4543) (Staphylococcus sp.; strain SMITH GC 4543): 1 µg/mL (≈ 0.708 µM) | MIC Enterococcus avium (GC 4558) (Enterococcus sp.; Enterococcus avium (GC 4558)): 4 µg/mL (≈ 2.83 µM) | MIC Enterococcus faecalis (ATCC 29212) (Enterococcus sp.; Enterococcus faecalis (ATCC 29212)): 2 µg/mL (≈ 1.42 µM) | MIC Enterococcus faecalis (GC 2242) (Enterococcus sp.; Enterococcus faecalis (GC 2242)): 2 µg/mL (≈ 1.42 µM) | MIC Enterococcus faecalis (GC 2691) (Enterococcus sp.; Enterococcus faecalis (GC 2691)): 2 µg/mL (≈ 1.42 µM) | MIC Enterococcus faecalis (GC 3059) (Enterococcus sp.; Enterococcus faecalis (GC 3059)): >64 µg/mL | MIC Enterococcus faecalis (GC 4552) (Enterococcus sp.; Enterococcus faecalis (GC 4552)): 2 µg/mL (≈ 1.42 µM) | MIC Enterococcus faecalis (GC 4553) (Enterococcus sp.; Enterococcus faecalis (GC 4553)): 4 µg/mL (≈ 2.83 µM) | MIC Enterococcus faecalis (GC 4554) (Enterococcus sp.; Enterococcus faecalis (GC 4554)): 2 µg/mL (≈ 1.42 µM) | MIC Enterococcus faecalis (GC 6189) (Enterococcus sp.; Enterococcus faecalis (GC 6189)): 2 µg/mL (≈ 1.42 µM) | MIC Enterococcus faecium (GC 2243) (Enterococcus sp.; Enterococcus faecium (GC 2243)): 4 µg/mL (≈ 2.83 µM) | MIC Enterococcus faecium (GC 4556) (Enterococcus sp.; Enterococcus faecium (GC 4556)): 2 µg/mL (≈ 1.42 µM) | MIC Enterococcus faecium (GC 4557) (Enterococcus sp.; Enterococcus faecium (GC 4557)): 1 µg/mL (≈ 0.708 µM) | MIC Enterococcus faecalis (ATCC 29212) (Enterococcus sp.; strain ATCC 29212): 2 µg/mL (≈ 1.42 µM) | MIC Enterococcus faecalis (GC 2242) (Enterococcus sp.; strain GC 2242): 2 µg/mL (≈ 1.42 µM) | MIC Enterococcus faecium (GC 2243) (Enterococcus sp.; strain GC 2243): 4 µg/mL (≈ 2.83 µM) | MIC Enterococcus faecalis (GC 2691) (Enterococcus sp.; strain GC 2691): 2 µg/mL (≈ 1.42 µM) | MIC Enterococcus faecalis (GC 3059) (Enterococcus sp.; strain GC 3059): >64 µg/mL | MIC Enterococcus faecalis (GC 4552) (Enterococcus sp.; strain GC 4552): 2 µg/mL (≈ 1.42 µM) | MIC Enterococcus faecalis (GC 4553) (Enterococcus sp.; strain GC 4553): 4 µg/mL (≈ 2.83 µM) | MIC Enterococcus faecalis (GC 4554) (Enterococcus sp.; strain GC 4554): 2 µg/mL (≈ 1.42 µM) | MIC Enterococcus faecium (GC 4556) (Enterococcus sp.; strain GC 4556): 2 µg/mL (≈ 1.42 µM) | MIC Enterococcus faecium (GC 4557) (Enterococcus sp.; strain GC 4557): 1 µg/mL (≈ 0.708 µM) | MIC Enterococcus avium (GC 4558) (Enterococcus sp.; strain GC 4558): 4 µg/mL (≈ 2.83 µM) | MIC Enterococcus faecalis (GC 6189) (Enterococcus sp.; strain GC 6189): 2 µg/mL (≈ 1.42 µM)
